From the supplement of paper PMC10307832

Legend:
Test in all cases: relative viability (nuclei count vs DMSO), 5 days (fraction); higher = more cells survive
[1] = compound: CCC1=CN=CN=C1N2CCN(CC2)CC3=NC4=C(N3)C=C(C=C4)C(F)(F)F + Nc1nc2[nH]cc(CCc3ccc(C(=O)N[C@@H](CCC(=O)O)C(=O)O)cc3)c2c(=O)[nH]1 [Pemetrexed] (partner 0.2 µM)
In short: (§1)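 Five library-drug doses in √10 steps were combined with a fixed anchor-drug dose, or a single drug was given alone, by pin tool to lung cancer cell lines in 1536-well plates the day after seeding. Nuclei were stained and counted after 5 days. Relative viability is the nuclei count in treated wells over that in vehicle wells, taken as the median of duplicate plates.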

[2] = compound: CCC1=CN=CN=C1N2CCN(CC2)CC3=NC4=C(N3)C=C(C=C4)C(F)(F)F + Cc1nc(NC(=O)N2CCC[C@H]2C(N)=O)sc1-c1ccnc(C(C)(C)C(F)(F)F)c1 [Alpelisib] (partner 2 µM)
In short: as §1

[3] = compound: CCn1c(-c2nonc2N)nc2cnc(Oc3cccc(NC(=O)c4ccc(OCCN5CCOCC5)cc4)c3)cc21 + CS(=O)(=O)CCNCc1ccc(-c2ccc3ncnc(Nc4ccc(OCc5cccc(F)c5)c(Cl)c4)c3c2)o1 [Lapatinib] (partner 2 µM)
In short: as §1

[4] = compound: CCn1c(-c2nonc2N)nc2cnc(Oc3cccc(NC(=O)c4ccc(OCCN5CCOCC5)cc4)c3)cc21 + CC1(C)CCC(c2ccc(Cl)cc2)=C(CN2CCN(c3ccc(C(=O)NS(=O)(=O)c4ccc(N[C@H](CCN5CCOCC5)CSc5ccccc5)c(S(=O)(=O)C(F)(F)F)c4)cc3)CC2)C1 [Navitoclax] (partner 0.5 µM)
In short: as §1

UMC-11 gave a relative viability ([1]; first compound 0.04 µM) of 0.772, a relative viability ([1]; first compound 0.1265 µM) of 0.767 and a relative viability ([1]; first compound 0.4 µM) of 0.83. For the same cell line, the relative viability ([1]; first compound 1.265 µM) was 0.761, the relative viability ([1]; first compound 4 µM) was 0.724 and the relative viability ([2]; first compound 0.04 µM) was 0.973. The relative viability ([2]; first compound 0.1265 µM) was 1.07, the relative viability ([2]; first compound 0.4 µM) was 0.959 and the relative viability ([2]; first compound 1.265 µM) was 0.906. The relative viability ([2]; first compound 4 µM) was 0.871, the relative viability ([3]; first compound 0.04 µM) was 0.959 and the relative viability ([3]; first compound 0.1265 µM) was 0.833. The relative viability ([3]; first compound 0.4 µM) was 0.509, the relative viability ([3]; first compound 1.265 µM) was 0.223 and the relative viability ([3]; first compound 4 µM) was 0.258. It also gave a relative viability ([4]; first compound 0.04 µM) of 0.349, a relative viability ([4]; first compound 0.1265 µM) of 0.314 and a relative viability ([4]; first compound 0.4 µM) of 0.313. For the same cell line, the relative viability ([4]; first compound 1.265 µM) was 0.151 and the relative viability ([4]; first compound 4 µM) was 0.144.
